# Entries after “also recorded” stand apart in the source; their conditions may differ.
# How the values were obtained:
# Assay type in all cases: cell-based
# EDG3 [1] = target: T1, EDG3 (Homo sapiens, UniProt Q99500); assay: GPCR reactivity screen, PathHunter β-Arrestin, antagonist assay EDG3; details: for antagonist activity against EDG3 (in words): GPCR reactivity screen; for EDG3 (Antagonist) percent inhibition: antagonist mode, agonist challenge at EC80
# Method: (§1) To evaluate the role specific cannabinoid compounds play in the neurological signaling pathway for itching, a GPCR reactivity assay was performed to determine the reactivity of 19 cannabinoid compounds to each of CHRM2, EDG3, and MRGPRX2. The evaluated cannabinoid compounds were: CBN, THCV, CBDVA, CBG, CBL, CBC, CBDV, CBDA, CBD, CBGA, (+)-CBD, CBG-C4, CBD-C1, CBD-C2, CBGV, CBGA-C4, CBGVA, CBCA, and CBLA. Acetylcholine was used as the control for CHRM2, sphingosine-1-phosphate was used as the control for EDG3; and cortistatin 14 was used as the control for MRGPRX2.
# (§2) In each of the antagonist assays, PathHunter® cell lines were removed from a freezer stock and seeded at a volume of 20 μL into white walled, 384-well microplates and incubated at 37° C. Each cell was pre-incubated with an antagonist followed by an agonist challenge at the EC80 concentration. Cells were then diluted to generate a 5× sample in assay buffer. 5 μL of the 5× sample was then added to cells and incubated at 37° C. for 30 minutes. Finally, 5 μL of 6×EC80 agonist in assay buffer were added to the cells and incubated at 37° C. for 90 minutes or 180 minutes. The assay signal was generated through addition of 12.5 μL or 15 μL (50% V/V) of a detection reagent cocktail followed by a one hour incubation time at room temperature. Microplates were read following signal generation with a PerkinElmer Envision™ (PerkinElmer Inc., Waltham, Mass.) for chemiluminescent signal detection. Reactivity was analyzed using the CBIS data analysis suite (ChemInnovation, CA) where RLU refers to the raw measured values. The percent inhibition was calculated using the formula: % Inhibition=100%*(1−mean RLU of test sample−mean RLU of control)/(mean RLU of EC80 control−mean RLU of vehicle control).
# (§3) As used herein, strong activity against a receptor is considered a percent activity of about 42% or higher. Higher results for antagonism against CHRM2, EDGE, and MRGPRX2 are considered better. It is further considered better when a cannabinoid inhibits more than one of the receptors.
# MRGPRX2 [2] = target: T2, MRGPRX2 (Homo sapiens, UniProt Q96LB1); assay: GPCR reactivity screen, PathHunter β-Arrestin, agonist assay MRGPRX2; details: agonist mode; control cortistatin 14
# T2 sequence (Q96LB1 1-330): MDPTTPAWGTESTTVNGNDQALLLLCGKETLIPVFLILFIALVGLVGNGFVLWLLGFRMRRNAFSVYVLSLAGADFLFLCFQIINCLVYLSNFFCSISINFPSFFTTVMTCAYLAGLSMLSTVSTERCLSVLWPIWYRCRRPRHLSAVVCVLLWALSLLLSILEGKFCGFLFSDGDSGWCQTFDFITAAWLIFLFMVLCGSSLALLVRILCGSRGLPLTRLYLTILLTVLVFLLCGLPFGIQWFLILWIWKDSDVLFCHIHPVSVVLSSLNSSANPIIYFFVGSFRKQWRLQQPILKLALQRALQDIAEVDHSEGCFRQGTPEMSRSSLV
# Method: as §1
# (§4) A total of six assays were run. Specifically, agonist and antagonist assays were run for each of CHRM2, EDG3, and MRGPRX2. In each of the three agonist assays, PathHunter® cell lines were removed from a freezer stock and seeded at a volume of 20 μL into white walled, 384-well microplates and incubated at 37° C. Each cell was incubated with a sample to induce a response and then diluted to generate a 5× sample in assay buffer. 5 μL of the 5× sample was then added to cells and incubated at 37° C. for 90 or 180 minutes. The final assay concentration was 1%. The assay signal was generated through addition of 12.5 μL or 15 μL (50% V/V) of a detection reagent cocktail followed by a one hour incubation time at room temperature. Microplates were read following signal generation with a PerkinElmer Envision™ (PerkinElmer Inc., Waltham, Mass.) for chemiluminescent signal detection. Reactivity was analyzed using the CBIS data analysis suite (ChemInnovation, CA) where RLU refers to the raw measured values. The percent activity was then calculated using the formula: % Activity=100%*(mean RLU of test sample−mean RLU of control)/(mean max control ligand−mean RLU of vehicle control).
# as §3
# CHRM2 [3] = target: T3, CHRM2 (Homo sapiens, UniProt P08172); assay: GPCR reactivity screen, PathHunter β-Arrestin, antagonist assay CHRM2; details: for antagonist activity against CHRM2 (in words): GPCR reactivity screen; for CHRM2 (Antagonist) percent inhibition: antagonist mode, agonist challenge at EC80
# T3 sequence (P08172 1-466): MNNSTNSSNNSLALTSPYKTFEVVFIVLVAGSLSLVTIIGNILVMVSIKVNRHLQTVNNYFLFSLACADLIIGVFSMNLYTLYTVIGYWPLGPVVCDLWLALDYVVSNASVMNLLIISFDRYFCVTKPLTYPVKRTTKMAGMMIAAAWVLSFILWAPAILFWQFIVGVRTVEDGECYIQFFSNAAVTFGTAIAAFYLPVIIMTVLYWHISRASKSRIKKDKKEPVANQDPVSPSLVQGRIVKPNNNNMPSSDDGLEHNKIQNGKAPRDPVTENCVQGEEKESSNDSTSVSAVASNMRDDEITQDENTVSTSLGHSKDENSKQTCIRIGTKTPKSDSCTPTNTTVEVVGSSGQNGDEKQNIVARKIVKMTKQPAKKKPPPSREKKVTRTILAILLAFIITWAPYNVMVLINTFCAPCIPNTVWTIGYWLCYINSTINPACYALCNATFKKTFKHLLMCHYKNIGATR
# Method: as §1, §2, §3
# EDG3 [4] = target: T1, EDG3; assay: GPCR reactivity screen, PathHunter β-Arrestin, agonist assay EDG3; set-up: concentration or dose not given beside the values; details: agonist mode; control sphingosine-1-phosphate
# Method: as §1, §4, §3
# CHRM2 [5] = target: T3, CHRM2; assay: GPCR reactivity screen, PathHunter β-Arrestin, agonist assay CHRM2; set-up: concentration or dose not given beside the values; details: agonist mode; control acetylcholine
# Method: as §1, §4, §3
# MRGPRX2 [6] = target: T2, MRGPRX2; assay: GPCR reactivity screen, PathHunter β-Arrestin, antagonist assay MRGPRX2; details: for antagonist activity against MRGPRX2 (in words): GPCR reactivity screen; for MRGPRX2 (Antagonist) percent inhibition: antagonist mode, agonist challenge at EC80
# Method: as §1, §2, §3
# T1 sequence (Q99500 whole entry): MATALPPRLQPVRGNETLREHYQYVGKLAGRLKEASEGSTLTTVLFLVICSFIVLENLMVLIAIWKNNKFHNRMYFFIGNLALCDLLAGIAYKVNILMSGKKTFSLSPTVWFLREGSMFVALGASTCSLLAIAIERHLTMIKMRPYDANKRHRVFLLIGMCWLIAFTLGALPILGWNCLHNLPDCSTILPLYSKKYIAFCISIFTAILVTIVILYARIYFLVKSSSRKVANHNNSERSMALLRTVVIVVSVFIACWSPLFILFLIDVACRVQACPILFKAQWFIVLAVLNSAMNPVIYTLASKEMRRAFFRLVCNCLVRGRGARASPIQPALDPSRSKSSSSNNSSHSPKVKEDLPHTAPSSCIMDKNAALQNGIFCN
SMILES,antagonist activity against EDG3 (in words) (EDG3 [1]),EDG3 (Antagonist) percent inhibition (EDG3 [1]),MRGPRX2 (Agonist) percent activity (MRGPRX2 [2]),antagonist activity against CHRM2 (in words) (CHRM2 [3]),CHRM2 (Antagonist) percent inhibition (CHRM2 [3]),EDG3 (Agonist) percent activity (EDG3 [4]),CHRM2 (Agonist) percent activity (CHRM2 [5]),antagonist activity against MRGPRX2 (in words) (MRGPRX2 [6]),MRGPRX2 (Antagonist) percent inhibition (MRGPRX2 [6])
"C=C(C)[C@@H]1CCC(C)=C[C@H]1c1c(O)cc(C)cc1O [CBD-C1, cannabidiorcol]",do not exhibit an antagonistic effect; also recorded: did not exhibit antagonistic effects,13%,1%,do not exhibit an antagonistic effect; also recorded: did not exhibit antagonistic effects,2%,1%,−1%,do not exhibit an antagonistic effect; also recorded: did not exhibit antagonistic effects,12%
"C=C(C)[C@@H]1CCC(C)=C[C@H]1c1c(O)cc(CCCCC)c(C(=O)O)c1O [CBDA, cannabidiolic acid]",do not exhibit an antagonistic effect,5%,4%,do not exhibit an antagonistic effect,−10%,−1%,1%,do not exhibit an antagonistic effect,8%
"C=C(C)[C@@H]1CCC(C)=C[C@H]1c1c(O)cc(CCC)c(C(=O)O)c1O [CBDVA, cannabidivarinic acid]",do not exhibit an antagonistic effect,13%,5%,do not exhibit an antagonistic effect,2%,−3%,2%,do not exhibit an antagonistic effect,−8%
"CCCCCc1cc(O)c(C/C=C(\C)CCC=C(C)C)c(O)c1C(=O)O [CBGA, cannabigerolic acid]",do not exhibit an antagonistic effect,12%,0%,do not exhibit an antagonistic effect,12%,2%,−3%,do not exhibit an antagonistic effect,17%
"CCCCc1cc(O)c(C/C=C(\C)CCC=C(C)C)c(O)c1C(=O)O [CBGA-C4, cannabigerolic acid butyl]",do not exhibit an antagonistic effect,16%,−1%,do not exhibit an antagonistic effect,19%,0%,−4%,do not exhibit an antagonistic effect,20%
"CCCc1cc(O)c(C/C=C(\C)CCC=C(C)C)c(O)c1C(=O)O [CBGVA, cannabigerovarinic acid]",do not exhibit an antagonistic effect,9%,−1%,do not exhibit an antagonistic effect,23%,−1%,−4%,do not exhibit an antagonistic effect,7%
